Measurements reported in patent US10988741B2, “Mutated genes for the catalytic protein of Oplophorus luciferase and use thereof” (JNC CORPORATION, priority 2014, dated 2021).

Tests used:
[1] = Luminescence activity of nanoKAZ mutants secreted into culture medium from CHO-K1 cells using secretory signal peptide sequence; assay type: biochemical; conditions: substrate furimazine, with secretory signal peptide, nanoKAZ with CTZ = 1.0
Procedure: Chinese hamster ovary cell line CHO-K1 was cultured in Ham's F-12 medium (manufactured by Wako Pure Chemical Industries, Ltd.) supplemented with 10% (v/v) fetal bovine serum (manufactured by Biowest Inc.). The CHO-K1 cells were seeded in a 6-well plate in 2×10^5 cells/well/2 mL medium (n=2) and cultured in an incubator at 37° C. in 5% (v/v) CO2. After 24 hours, the purified recombinant plasmid was transfected to CHO-K1 cells using a FuGene HD transfection kit (manufactured by Promega Corp.) and the cells were provided for subsequent experiment. Specifically, 1 μg of the recombinant plasmid, 0.1 μg of the internal standard vector pGL4.13 [Luc2/sv40] and 3.3 μL of FuGene HD were added to 100 μL of the medium and allowed to stand at room temperature for 15 minutes. […]
Luminescence activity was measured for 60 seconds using a luminometer (manufactured by Atto Inc.: AB2200); the maximum intensity of luminescence (Imax) and the integrated values for 60 seconds within parentheses in terms of relative intensity of luminescence are shown in TABLE 3.
(§1) Luminescence activity of the nanoKAZ mutants secreted into the culture medium from animal cultured cells using the secretory signal peptide sequence was measured by the method described in EXAMPLE 9. […] The nanoKAZ-AQQL mutant is secretable protein and can use coelenterazine as the most efficient substrate for the luminescence reaction.

[2] = as above; assay type: biochemical; conditions: nanoKAZ with CTZ = 1.0
Procedure: Chinese hamster ovary cell line CHO-K1 was cultured in Ham's F-12 medium (manufactured by Wako Pure Chemical Industries, Ltd.) supplemented with 10% (v/v) fetal bovine serum (manufactured by Biowest Inc.). The CHO-K1 cells were seeded in a 6-well plate in 2×10^5 cells/well/2 mL medium (n=2) and cultured in an incubator at 37° C. in 5% (v/v) CO2. After 24 hours, the purified recombinant plasmid was transfected to CHO-K1 cells using a FuGene HD transfection kit (manufactured by Promega Corp.) and the cells were provided for subsequent experiment. Specifically, 1 μg of the recombinant plasmid, 0.1 μg of the internal standard vector pGL4.13 [Luc2/sv40] and 3.3 μL of FuGene HD were added to 100 μL of the medium and allowed to stand at room temperature for 15 minutes. Subsequently, 100 μL of the DNA-FuGene complex solution was added to the cells in the 6-well plate. After incubation for 46 hours, the culture medium was collected.
(§2) The crude enzyme solution, 5 μl, obtained in EXAMPLE 8 was added to 100 μl of 30 mM Tris-HCl (pH 7.6)-10 mM EDTA (Wako Pure Chemical Industries, Ltd.) containing 1 μg of coelenterazine (manufactured by JNC Corp.), and the luminescence reaction was started. Luminescence activity was measured for 60 seconds using a luminometer (manufactured by Atto Inc.: AB2200); the maximum intensity of luminescence (Imax) and the integrated values for 60 seconds within parentheses in terms of relative intensity of luminescence are shown in TABLE 3.
as §1

[3] = reported in the literature (Patent Document 2, Non-Patent Documents 5 and 6); cited from earlier work
[4] = Luminescence activity of ZZ-fused nanoKAZ mutants expressed in E. coli (soluble fraction); assay type: biochemical; conditions: nanoKAZ with CTZ = 1.0
Procedure: The E. coli BL21 strain (manufactured by Novagen) was used as a host cell. The strain was cultured in 10 mL of Luria-Bertani medium containing ampicillin (50 μg/mL) at 37° C. for 18 hours. The seed culture was inoculated to 10 mL of LB medium and incubated for 3 hours, followed by cooling in an ice-water bath for 1 hour. IPTG was added to the culture medium at a final concentration of 0.2 mM, followed by incubation at 15° C. for further 20 hours. The E. coli cells were collected from 1 mL of the culture medium by centrifugation. The collected E. coli cells were suspended in 0.5 mL of 50 mM Tris-HCl (pH 7.6) containing 10 mM EDTA (manufactured by Wako Pure Chemical Industries, Ltd.). The cells were disrupted by sonication for 5 seconds using a Branson Model 250 Sonifire. The cells were subjected to high-speed centrifugation to recover 0.5 mL of the supernatant as a soluble fraction containing the ZZ-fused nanoKAZ mutant. This soluble fraction, 5 μL, was subjected to SDS-PAGE electrophoresis to confirm expression of the proteins. In FIG. 2, numerals 1 to 5 represent as follows: 1: molecular weight size markers; 2: nanoKAZ, 3: nanoKAZ-AQQL, 4: nanoKAZ-KVA, 5: nanoKAZ-FLM. The results in FIG. 2 reveal that each mutated nanoKAZ protein was expressed in E. coli as soluble proteins at the same expression level as in nanoKAZ.
After 5 μL of the soluble fraction solution obtained in EXAMPLE 3 was added to 100 μL of 50 mM Tris-HCl (pH 7.6)-10 mM EDTA containing 1 μg of coelenterazine (manufactured by JNC Corp.) or its analogue, a luminescence reaction was started. Luminescence activity was measured for 60 seconds using a luminometer (manufactured by Atto Inc.: AB2200). The relative maximum intensity of luminescence (Imax) and the integrated values for 60 seconds within parentheses in terms of relative intensity of luminescence are shown in TABLE 2.
The coelenterazine analogues used for substrate specificity studies were synthesized by the methods described in publications, respectively. Specifically, bis-coelenterazine was synthesized by the method described in Nakamura et al. (1997) Tetrahedron Lett. 38: 6405-6406, furimazine by the method described in Hall et al. (2012) ACS Chem. Biol. […], h-coelenterazine by the method described in Inouye et al (2010) Anal. Biochem. 407:247-252 and 6h-coelenterazine and 6h-f-coelenterazine by the method described in Inouye et al (2013) Biochem. Biophys. Res. Commun. 437: 23-28. f-coelenterazine was purchased from Prolume Ltd. Luminescence activity of the ZZ-fused nanoKAZ mutants was measured by the method described in EXAMPLE 4.

[5] = Luminescence activity of nanoKAZ mutants in culture medium of CHO-K1 cells without secretory signal peptide sequence; assay type: biochemical; conditions: substrate coelenterazine (CTZ), nanoKAZ = 1.0
Procedure: Chinese hamster ovary cell line CHO-K1 was cultured in Ham's F-12 medium (manufactured by Wako Pure Chemical Industries, Ltd.) supplemented with 10% (v/v) fetal bovine serum (manufactured by Biowest Inc.). The CHO-K1 cells were seeded in a 6-well plate in 2×10^5 cells/well/2 mL medium (n=2) and cultured in an incubator at 37° C. in 5% (v/v) CO2. After 24 hours, the purified recombinant plasmid was transfected to CHO-K1 cells using a FuGene HD transfection kit (manufactured by Promega Corp.) and the cells were provided for subsequent experiment. […]
as §2
Luminescence activity of the nanoKAZ mutants in culture medium, which were secreted from animal culture cells without using a secretory signal peptide sequence, was measured by the method described in EXAMPLE 9. […]

[6] = substrate 6h-coelenterazine, with secretory signal peptide
[7] = substrate 6h-f-coelenterazine, with secretory signal peptide
[8] = substrate bis-coelenterazine, with secretory signal peptide
[9] = substrate coelenterazine (CTZ), with Gaussia luciferase secretory signal peptide
[10] = substrate f-coelenterazine, with secretory signal peptide
[11] = substrate h-coelenterazine, with secretory signal peptide

nanoKAZ: known mutated 19 kDa catalytic protein of Oplophorus luciferase with 16 amino acid mutations; amino acid sequence SEQ ID NO: 2
Relative maximum intensity of luminescence Imax [1]: 5.9 | integrated values of relative intensity of luminescence for 1 min [1]: (6.2) | Relative maximum intensity of luminescence Imax [2, 6]: 0.8 | integrated values of relative intensity of luminescence for 1 min [2, 6]: (0.7) | Relative maximum intensity of luminescence Imax [2, 7]: 11.7 | integrated values of relative intensity of luminescence for 1 min [2, 7]: (11.8) | Relative maximum intensity of luminescence Imax [2, 8]: 11.1 | integrated values of relative intensity of luminescence for 1 min [2, 8]: (11.1) | Relative maximum intensity of luminescence Imax [2, 9]: 1.0 | integrated values of relative intensity of luminescence for 1 min [2, 9]: (1.0) | Relative maximum intensity of luminescence Imax [2, 10]: 21.6 | integrated values of relative intensity of luminescence for 1 min [2, 10]: (12.2) | Relative maximum intensity of luminescence Imax [2, 11]: 16.4 | integrated values of relative intensity of luminescence for 1 min [2, 11]: (9.9) | luminescence activity, fold higher than that of native 19 kDa protein [3]: approximately 10 fold | Relative maximum intensity of luminescence Imax ([4]; substrate 6h-coelenterazine): 0.6 | integrated values of relative intensity of luminescence for 1 min ([4]; substrate 6h-coelenterazine): (0.4) | Relative maximum intensity of luminescence Imax ([4]; substrate 6h-f-coelenterazine): 7.9 | integrated values of relative intensity of luminescence for 1 min ([4]; substrate 6h-f-coelenterazine): (4.6) | Relative maximum intensity of luminescence Imax ([4]; substrate bis-coelenterazine): 9.0 | integrated values of relative intensity of luminescence for 1 min ([4]; substrate bis-coelenterazine): (6.3) | Relative maximum intensity of luminescence Imax ([4]; substrate coelenterazine (CTZ)): 1.0 | integrated values of relative intensity of luminescence for 1 min ([4]; substrate coelenterazine (CTZ)): (1.0) | Relative maximum intensity of luminescence Imax ([4]; substrate f-coelenterazine): 20.2 | integrated values of relative intensity of luminescence for 1 min ([4]; substrate f-coelenterazine): (10.0) | Relative maximum intensity of luminescence Imax ([4]; substrate furimazine): 4.8 | integrated values of relative intensity of luminescence for 1 min ([4]; substrate furimazine): (3.7) | Relative maximum intensity of luminescence Imax ([4]; substrate h-coelenterazine): 14.2 | integrated values of relative intensity of luminescence for 1 min ([4]; substrate h-coelenterazine): (7.4) | Relative maximum intensity of luminescence Imax [5]: 1.0 (1.0) | integrated values of relative intensity of luminescence for 1 min [5]: 1.0 (1.0)
